Results reported in patent publication US20230111310A1, “CARBOXYLIC ACID DERIVATIVE-SUBSTITUTED IMINO ARYL COMPOUND, PREPARATION METHOD THEREFOR, HERBICIDAL COMPOSITION AND USE THEREOF” (Qingdao Kingagroot Chemical Compound Co., Ltd., priority 2020, published 2023).

The molecules below were run on Abutilon theophrasti (assay: Weeding effect in post-emergence stage). Details: Dose 15 g/ha; level of fresh weight growth control rate.
Assay type: in vivo
Summary of the method: (§1)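 Read-out is growth control rate, counted 3 weeks post-spray and averaged over three repeats. Greenhouse plants at the 2-3 leaf stage received spray-tower application at 500, 250, 125, 60, 30, 15 or 7.5 g/ha, with methyl oleate EC (1.5 liter/ha) and Tween 80 added.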

| SMILES | Weeding effect in post-emergence stage, Abutilon theophrasti |
| --- | --- |
| C[C@@H](O/N=C/c1cc(-n2c(=O)n(C)c(=S)n(C)c2=O)c(F)cc1Cl)C(=O)OCc1ccco1 [26(R)] | 5 (Level 5: growth control rate is above 85%) |
| C[C@@H](O/N=C/c1cc(-n2c(=O)n(C)c(=S)n(C)c2=O)c(F)cc1Cl)C(=O)OCc1ccccc1 [42(R)] | 5 (Level 5: growth control rate is above 85%) |
| C[C@@H](O/N=C/c1cc(-n2c(=O)n(C)c(=S)n(C)c2=O)c(F)cc1Cl)C(=O)OCc1cccnc1 [59(R)] | 5 (Level 5: growth control rate is above 85%) |
| C[C@@H](O/N=C/c1cc(-n2c(=O)n(C)c(=S)n(C)c2=O)c(F)cc1Cl)C(=O)OCc1ccncc1 [60(R)] | 5 (Level 5: growth control rate is above 85%) |
| CC[C@@H](O/N=C/c1cc(-n2c(=O)n(C)c(=S)n(C)c2=O)c(F)cc1Cl)C(=O)OC [72(R)] | 5 (Level 5: growth control rate is above 85%) |
| CCOC(=O)[C@H](O/N=C/c1cc(-n2c(=O)n(C)c(=S)n(C)c2=O)c(F)cc1Cl)C1CC1 [76(R)] | 5 (Level 5: growth control rate is above 85%) |

What follows are molecules tested on Alopecurus japonicus (assay: Weeding effect in post-emergence stage). Details: Dose 15 g/ha; level of fresh weight growth control rate.
Assay type: in vivo
Summary of the method: as §1

| SMILES | Weeding effect in post-emergence stage, Alopecurus japonicus |
| --- | --- |
| C[C@@H](O/N=C/c1cc(-n2c(=O)n(C)c(=S)n(C)c2=O)c(F)cc1Cl)C(=O)OCc1ccco1 [26(R)] | 5 (Level 5: growth control rate is above 85%) |
| C[C@@H](O/N=C/c1cc(-n2c(=O)n(C)c(=S)n(C)c2=O)c(F)cc1Cl)C(=O)OCc1ccccc1 [42(R)] | 4 (Level 4: growth control rate is greater than or equal to 60% and less than 85%) |
| C[C@@H](O/N=C/c1cc(-n2c(=O)n(C)c(=S)n(C)c2=O)c(F)cc1Cl)C(=O)OCc1cccnc1 [59(R)] | 4 (Level 4: growth control rate is greater than or equal to 60% and less than 85%) |
| C[C@@H](O/N=C/c1cc(-n2c(=O)n(C)c(=S)n(C)c2=O)c(F)cc1Cl)C(=O)OCc1ccncc1 [60(R)] | 4 (Level 4: growth control rate is greater than or equal to 60% and less than 85%) |
| CC[C@@H](O/N=C/c1cc(-n2c(=O)n(C)c(=S)n(C)c2=O)c(F)cc1Cl)C(=O)OC [72(R)] | 5 (Level 5: growth control rate is above 85%) |
| CCOC(=O)[C@H](O/N=C/c1cc(-n2c(=O)n(C)c(=S)n(C)c2=O)c(F)cc1Cl)C1CC1 [76(R)] | 5 (Level 5: growth control rate is above 85%) |

These molecules were tested on Digitaria sanguinalis (assay: Weeding effect in post-emergence stage). Details: Dose 15 g/ha; level of fresh weight growth control rate.
Assay type: in vivo
Summary of the method: as §1

| SMILES | Weeding effect in post-emergence stage, Digitaria sanguinalis |
| --- | --- |
| C[C@@H](O/N=C/c1cc(-n2c(=O)n(C)c(=S)n(C)c2=O)c(F)cc1Cl)C(=O)OCc1ccco1 [26(R)] | 5 (Level 5: growth control rate is above 85%) |
| C[C@@H](O/N=C/c1cc(-n2c(=O)n(C)c(=S)n(C)c2=O)c(F)cc1Cl)C(=O)OCc1ccccc1 [42(R)] | 5 (Level 5: growth control rate is above 85%) |
| C[C@@H](O/N=C/c1cc(-n2c(=O)n(C)c(=S)n(C)c2=O)c(F)cc1Cl)C(=O)OCc1cccnc1 [59(R)] | 5 (Level 5: growth control rate is above 85%) |
| C[C@@H](O/N=C/c1cc(-n2c(=O)n(C)c(=S)n(C)c2=O)c(F)cc1Cl)C(=O)OCc1ccncc1 [60(R)] | 5 (Level 5: growth control rate is above 85%) |
| CC[C@@H](O/N=C/c1cc(-n2c(=O)n(C)c(=S)n(C)c2=O)c(F)cc1Cl)C(=O)OC [72(R)] | 5 (Level 5: growth control rate is above 85%) |
| CCOC(=O)[C@H](O/N=C/c1cc(-n2c(=O)n(C)c(=S)n(C)c2=O)c(F)cc1Cl)C1CC1 [76(R)] | 5 (Level 5: growth control rate is above 85%) |

The molecules below were run on Eleusine indica (assay: Weeding effect in post-emergence stage). Details: Dose 15 g/ha; level of fresh weight growth control rate.
Assay type: in vivo
Summary of the method: as §1

| SMILES | Weeding effect in post-emergence stage, Eleusine indica |
| --- | --- |
| C[C@@H](O/N=C/c1cc(-n2c(=O)n(C)c(=S)n(C)c2=O)c(F)cc1Cl)C(=O)OCc1ccco1 [26(R)] | 5 (Level 5: growth control rate is above 85%) |
| C[C@@H](O/N=C/c1cc(-n2c(=O)n(C)c(=S)n(C)c2=O)c(F)cc1Cl)C(=O)OCc1ccccc1 [42(R)] | 5 (Level 5: growth control rate is above 85%) |
| C[C@@H](O/N=C/c1cc(-n2c(=O)n(C)c(=S)n(C)c2=O)c(F)cc1Cl)C(=O)OCc1cccnc1 [59(R)] | 5 (Level 5: growth control rate is above 85%) |
| C[C@@H](O/N=C/c1cc(-n2c(=O)n(C)c(=S)n(C)c2=O)c(F)cc1Cl)C(=O)OCc1ccncc1 [60(R)] | 5 (Level 5: growth control rate is above 85%) |
| CC[C@@H](O/N=C/c1cc(-n2c(=O)n(C)c(=S)n(C)c2=O)c(F)cc1Cl)C(=O)OC [72(R)] | 5 (Level 5: growth control rate is above 85%) |
| CCOC(=O)[C@H](O/N=C/c1cc(-n2c(=O)n(C)c(=S)n(C)c2=O)c(F)cc1Cl)C1CC1 [76(R)] | 5 (Level 5: growth control rate is above 85%) |

What follows are molecules tested on Setaria viridis (assay: Weeding effect in post-emergence stage). Details: Dose 15 g/ha; level of fresh weight growth control rate.
Assay type: in vivo
Summary of the method: as §1

| SMILES | Weeding effect in post-emergence stage, Setaria viridis |
| --- | --- |
| C[C@@H](O/N=C/c1cc(-n2c(=O)n(C)c(=S)n(C)c2=O)c(F)cc1Cl)C(=O)OCc1ccco1 [26(R)] | 5 (Level 5: growth control rate is above 85%) |
| C[C@@H](O/N=C/c1cc(-n2c(=O)n(C)c(=S)n(C)c2=O)c(F)cc1Cl)C(=O)OCc1ccccc1 [42(R)] | 5 (Level 5: growth control rate is above 85%) |
| C[C@@H](O/N=C/c1cc(-n2c(=O)n(C)c(=S)n(C)c2=O)c(F)cc1Cl)C(=O)OCc1cccnc1 [59(R)] | 5 (Level 5: growth control rate is above 85%) |
| C[C@@H](O/N=C/c1cc(-n2c(=O)n(C)c(=S)n(C)c2=O)c(F)cc1Cl)C(=O)OCc1ccncc1 [60(R)] | 5 (Level 5: growth control rate is above 85%) |
| CC[C@@H](O/N=C/c1cc(-n2c(=O)n(C)c(=S)n(C)c2=O)c(F)cc1Cl)C(=O)OC [72(R)] | 5 (Level 5: growth control rate is above 85%) |
| CCOC(=O)[C@H](O/N=C/c1cc(-n2c(=O)n(C)c(=S)n(C)c2=O)c(F)cc1Cl)C1CC1 [76(R)] | 5 (Level 5: growth control rate is above 85%) |

Each molecule was assayed on Echinochloa crusgalli (assay: Weeding effect in post-emergence stage). Details: Dose 15 g/ha; level of fresh weight growth control rate.
Assay type: in vivo
Summary of the method: as §1

| SMILES | Weeding effect in post-emergence stage, Echinochloa crusgalli |
| --- | --- |
| C[C@@H](O/N=C/c1cc(-n2c(=O)n(C)c(=S)n(C)c2=O)c(F)cc1Cl)C(=O)OCc1ccco1 [26(R)] | 5 (Level 5: growth control rate is above 85%) |
| C[C@@H](O/N=C/c1cc(-n2c(=O)n(C)c(=S)n(C)c2=O)c(F)cc1Cl)C(=O)OCc1ccccc1 [42(R)] | 5 (Level 5: growth control rate is above 85%) |
| C[C@@H](O/N=C/c1cc(-n2c(=O)n(C)c(=S)n(C)c2=O)c(F)cc1Cl)C(=O)OCc1cccnc1 [59(R)] | 5 (Level 5: growth control rate is above 85%) |
| C[C@@H](O/N=C/c1cc(-n2c(=O)n(C)c(=S)n(C)c2=O)c(F)cc1Cl)C(=O)OCc1ccncc1 [60(R)] | 5 (Level 5: growth control rate is above 85%) |
| CC[C@@H](O/N=C/c1cc(-n2c(=O)n(C)c(=S)n(C)c2=O)c(F)cc1Cl)C(=O)OC [72(R)] | 5 (Level 5: growth control rate is above 85%) |
| CCOC(=O)[C@H](O/N=C/c1cc(-n2c(=O)n(C)c(=S)n(C)c2=O)c(F)cc1Cl)C1CC1 [76(R)] | 5 (Level 5: growth control rate is above 85%) |
